Source: patent US20250144131A1, “POLYSACCHARIDE COMPOUND WITH A DEFINED MOLECULAR STRUCTURE FOR THE TREATMENT OF PULMONARY FIBROSIS” (SHENZHEN YANDAI INVESTMENT CO., LTD, priority 2023, published 2025)
Marks after values point to notes of the source that are not given here.

How the values were obtained:
[1] = Mortality and body weight of 4T1 breast tumor-bearing mice; assay type: in vivo, BALB/c mice
Procedure: A suspension of 4T1 breast cancer cells was injected subcutaneously into the left shoulder back of 55 healthy female BALB/c mice to create solid tumor models. When the mean tumor volume reached approximately 240 mm^3, the mice were randomized into groups based on tumor volume, and were administered the respective drugs or drug solvents via oral gavage or intraperitoneal injection over 25 consecutive days. Longest and shortest diameters of tumors were measured every three days to calculate tumor volume, and mouse weights were recorded every three days. At the end of the experiment, tumors, spleens, and thymuses were harvested and weighed to calculate tumor, spleen, and thymus indices.

[2] = Mortality and body weight of orthotopic H22-bearing mice; conditions: Kanglaite soft capsule 1404 mg/kg
Description: Liver cancer (H22) cells, labeled with Luc fluorescent marker at a concentration of 1×10^7 cells/mL, were initially inoculated into the peritoneal cavity of 8 male C57 mice. After the development of ascites, the ascitic fluid was aseptically extracted, washed with HBSS buffer, centrifuged to discard the supernatant, and stained with Trypan Blue, and cells in the ascitic fluid were counted under a microscope. The cell concentration was adjusted to […] with HBSS buffer and inoculated into the right hepatic region of 51 male C57 mice, at a volume of 10 μL per mouse, to prepare the orthotopic tumor-bearing mice. One week later, the liver tumor formation in mice was detected using a small animal in vivo imaging system. Based on tumor size, the mice were randomized into groups: model control group, cisplatin group (4 mg/kg), Kanglaite soft capsule group (1,404 mg/kg), cisplatin+Kanglaite soft capsule group (4+1,404 mg/kg), cisplatin+GLP-4 low-dose group (4+130 mg/kg), and cisplatin+GLP-4 high-dose group (4+1,170 mg/kg), with 6 mice per group. An additional 6 mice served as the normal control group. The normal control group and the model control group were administered pure water by oral gavage. The chemotherapy group received intraperitoneal injections of cisplatin, and the other groups were administered their respective drug solutions by oral gavage (20 mL/kg) or intraperitoneal injection (10 mL/kg), once daily for 14 consecutive days. After the last dose, blood was collected from the orbital plexus to test blood WBC, RBC, liver and kidney function indicators (ALT, AST, BUN, CRE), and CD3^+/CD4^+, CD3^+/CD8^+ ratios. The spleen, thymus, and tumors were weighed to calculate organ coefficients.
Animal survival and general condition: Weight was recorded weekly, along with any deaths among the animals.

[3] = Mortality and body weight of LLC-bearing mice
Procedure: LLC cells in logarithmic growth phase at 1×10^7/mL were inoculated at 0.2 mL into the right axilla of 10 purchased normal male C57 mice. Tumor growth was monitored, and tumor-bearing mice were prepared. Once the tumor volume in tumor-bearing mice exceeded 200 mm^3, the tumor tissue was aseptically harvested to prepare a tissue cell suspension. This was mixed at a 1:1 (V:V) ratio with culture medium to create a tumor tissue homogenate. This homogenate was injected into the right axilla of 60 male C57 mice at 0.2 mL per mouse. When the tumor volume in these tumor-bearing mice exceeded 100 mm^3, mice with well-grown tumors without ulceration were selected and randomized into groups based on tumor volume as follows: model control group, cisplatin group (4 mg/kg), Kanglaite soft capsule group (1,404 mg/kg), cisplatin+Kanglaite soft capsule group (4+1,404 mg/kg), cisplatin+GLP-4 low-dose group (4+130 mg/kg), and cisplatin+GLP-4 high-dose group (4+1,170 mg/kg), with 8 mice per group. Additionally, 8 mice were selected as a normal control group. The cisplatin group received intraperitoneal injections of cisplatin, and the other groups were administered their respective drug solutions by gavage (20 mL/kg) or intraperitoneal injection (10 mL/kg), once daily for 27 consecutive days. After the last dose, blood was collected from the orbital plexus to test blood WBC, RBC, liver and kidney function indicators (ALT, AST, BUN, CRE), and CD3^+, CD4^+, and CD8^+ levels. Bone marrow smears were examined, and spleens, thymuses, and tumors were weighed. Histopathological examinations were conducted on the tumor, spleen, stomach, and kidneys.
Evaluation of quality of life and survival time in animals: Throughout the experimental process, detailed records were kept for each group of animals regarding weight, mortality, mental state, fur color, smoothness of fur, and fecal form, including incidences of diarrhea (if any).

4T1 breast cancer cells = test: Antitumor effect in 4T1 breast tumor-bearing mice (tumor volume, relative tumor growth inhibition rate, tumor index, tumor growth inhibition rate); assay type: in vivo, BALB/c mice
Procedure: Longest and shortest diameters of tumors were measured every three days to calculate tumor volume, and mouse weights were recorded every three days. At the end of the experiment, tumors, spleens, and thymuses were harvested and weighed to calculate tumor, spleen, and thymus indices. […] Where TRTV is the relative tumor volume in the experimental group, and CRTV is the relative tumor volume in the model control group. Relative tumor volume (RTV)=Vt/V0, where Vt is the tumor volume on day t of dosing, and V0 is the tumor volume at the time of grouping. Evaluation criteria: […] Where T represents the average tumor weight in the treatment group, and C represents the average tumor weight in the model control group. Evaluation criteria: […]

[4] = 8 per group, cisplatin 4, Kanglaite 1404, GLP-4 low-dose 130 mg/kg

N.N.[Cl][Pt][Cl] [Cisplatin, cisplatin]
Number of deaths ([1]; 10 per group, cisplatin 4 mg/kg): 0
Survival time ([1]; 25 days of dosing, cisplatin 4 mg/kg): 25 ± 0 days
Weight ([1]; D0, cisplatin 4 mg/kg): 18.3 ± 1.3 g
Weight ([1]; D3, cisplatin 4 mg/kg): 17.7 ± 1.1 g
Weight ([1]; D6, cisplatin 4 mg/kg): 15.5 ± 1*^ g
Weight ([1]; D9, cisplatin 4 mg/kg): 15 ± 1.4 g
Weight ([1]; D12, cisplatin 4 mg/kg): 13.8 ± 0.9 g
Weight ([1]; D15, cisplatin 4 mg/kg): 15 ± 1.1 g
Weight ([1]; D19, cisplatin 4 mg/kg): 16.8 ± 1.4 g
Weight ([1]; D22, cisplatin 4 mg/kg): 18 ± 1.5 g
Weight ([1]; D25, cisplatin 4 mg/kg): 18.1 ± 1.6 g
Mortality rate ([1]; cisplatin 4 mg/kg): 0.0%
Number of deaths ([2]; 6 per group, cisplatin 4 mg/kg): 3
Number of surviving animals ([2]; 6 per group, cisplatin 4 mg/kg): 3
Weight ([2]; W0, cisplatin 4 mg/kg): 18.5 ± 1.3 g
Weight ([2]; W1, cisplatin 4 mg/kg): 16.9 ± 1.8 ^ g
Weight ([2]; W2, cisplatin 4 mg/kg): 15.1 ± 1.6 g
Mortality rate ([2]; cisplatin 4 mg/kg): 50.0%
Number of deaths [3, 4]: 0
Number of surviving animals [3, 4]: 8
Weight ([3]; D1, cisplatin 4, Kanglaite 1404, GLP-4 low-dose 130 mg/kg): 14.1 ± 0.7 g
Weight ([3]; D4, cisplatin 4, Kanglaite 1404, GLP-4 low-dose 130 mg/kg): 14.5 ± 1.1 g
Mortality rate ([3]; cisplatin 4, Kanglaite 1404, GLP-4 low-dose 130 mg/kg): 0%
Tumor volume (4T1 breast cancer cells; D0, cisplatin 4 mg/kg): 225.3 ± 65.4 mm^3
Relative tumor growth inhibition rate (compared to model control group) (4T1 breast cancer cells; D3, cisplatin 4 mg/kg): 17.2%
Relative tumor growth inhibition rate (compared to model control group) (4T1 breast cancer cells; D6, cisplatin 4 mg/kg): 43.5* %
Relative tumor growth inhibition rate compared to the model control group (4T1 breast cancer cells; D6 to D25, cisplatin 4, GLP-4 low-dose 130 mg/kg): over 40%
Relative tumor growth inhibition rate (compared to model control group) (4T1 breast cancer cells; D9, cisplatin 4 mg/kg): 49.1* %
Relative tumor growth inhibition rate (compared to model control group) (4T1 breast cancer cells; D12, cisplatin 4 mg/kg): 55.7* %
Relative tumor growth inhibition rate (compared to model control group) (4T1 breast cancer cells; D15, cisplatin 4 mg/kg): 56.9* %
Relative tumor growth inhibition rate (compared to model control group) (4T1 breast cancer cells; D19, cisplatin 4 mg/kg): 48.8* %
Relative tumor growth inhibition rate (compared to model control group) (4T1 breast cancer cells; D22, cisplatin 4 mg/kg): 44.1* %
Relative tumor growth inhibition rate (compared to model control group) (4T1 breast cancer cells; D25, cisplatin 4 mg/kg): 42.1* %
Tumor volume (4T1 breast cancer cells; D25, cisplatin 4 mg/kg): 2026.4 ± 707^ mm^3
Tumor growth inhibition rate (%) vs. the model control group (4T1 breast cancer cells; cisplatin 4 mg/kg): 29.6%
Tumor index (4T1 breast cancer cells; cisplatin 4 mg/kg): 11.5 ± 3.3%
Peak relative tumor growth inhibition rate compared to the model control group (4T1 breast cancer cells; cisplatin 4, GLP-4 low-dose 130 mg/kg): 56.9%
Tumor growth inhibition rate compared to the model control group (4T1 breast cancer cells; tumor weight, cisplatin 4, GLP-4 low-dose 130 mg/kg): 29.6%
